What was measured:
[1] = test system: prostate cancer cell line PC-3; assay: Invasion assay, PC-3; type: cell-based, human; settings: without cytotoxicity
[2] = test system: HeLa cells; assay: HeLa cell G2/M assays; type: cell-based
Text: This assay measures HeLa cell proliferation, apoptosis, DNA content and condensation, cyclin B, and phosphor-histone H3.

[3] = test system: alkaline phosphatase in C2C12 cells; assay: Alkaline phosphatase in C2C12 cells (Wnt pathway); type: cell-based; settings: Mus musculus
Text: Effects on Wnt/β-catenin. […] These two compounds affected both alkaline phosphatase and β-catenin levels in C2C12 cells.

[4] = test system: MDA-MB-231; assay: Wound-healing assay; type: cell-based, human; settings: 100 nM dose
Method: Wound-healing assay. MDA-MB-231 cells are plated onto sterile 24-well plates and allowed to form a confluent cell monolayer (>95% confluence) overnight. Wounds are then inflicted on each cell monolayer using a sterile 200 μL pipette tip. Media are removed, and cells are washed twice with PBS and once with fresh serum-free media. Test latrunculin compounds at various concentrations (100 nM-10 μM) in fresh, serum-free media are added to each well and incubated for 24 h under serum-starved conditions. Media are then removed, and the cells are washed, fixed and stained using Diff-Quick™ staining (Dade Behring Diagnostics, Aguada, Puerto Rico). Cells that have migrated across the inflicted wound are counted under the microscope in three or more randomly selected fields (magnification: 400×). All experiments are conducted independently in triplicate replications.

[5] = test system: MDA-MB-231 cells; assay: Cultrex BME cell invasion assay; type: cell-based, human; settings: for fold more active against cell invasion than latrunculin A (compound 1): 0.5 μM
Method: The anti-invasive activities of compounds 1-14 were measured using a 96 well basement membrane extract (BME) cell invasion assay kit against the highly metastatic MDA-MB-231 cells. This assay employs a simplified Boyden Chamber with a polyethylene terephthalate membrane (8 μm pore size). Cell invasion was quantified using calcein-acetomethylester (calcein-AM). Cells internalize calcein-AM; intracellular esterases then cleave the acetomethylester moiety to generate free calcein. Free calcein fluoresces brightly. This fluorescence may be used to quantify the number of cells that have invaded across the BME. To correlate the anti-invasive activities of the latrunculin A derivatives with their actin-disrupting activities, compounds 1-14 were each tested at non-toxic concentrations. […] Accordingly, all compounds were tested at 0.1, 0.5, and 1.0 μM. Compound 3 killed 17% of MDA-MB-231 cells at 1.0 μM, while the same dose of compound 3 inhibited 95% of MDA-MB-231 cells' invasion. […] The anti-invasive activities of compounds 1-14 are attributed primarily to the inhibition of actin polymerization, not to cell death per se.
Cultrex® Cell Invasion Assay. Anti-invasive activities were measured using Trevigen's Cultrex® Cell Invasion Assay as described in K. Tamilarasan et al., BMC Cell Biol. 2006, 7, 17-30; and P. Borghesani et al., Development. 2002, 6, 1435-1442. About 50 μL of basement membrane extract (BME) coat was added to each well. After incubation for 4 h at 37° C. under 5% CO2, 50,000 MDA-MB-231 cells in 50 μL of serum free RPMI medium were added to each well in the top chamber, along with the test compound at one of several concentrations (0.1, 0.5, 1 μM). About 150 μL of RPMI medium was added to the lower chamber in 10% FBS and penicillin/streptomycin, using fibronectin ([…]) and N-formyl-met-leu-phe (10 nM) as chemoattractants. Cells were allowed to migrate to the lower chamber at 37° C. under 5% CO2. After 24 h, the top and bottom chambers were aspirated and washed with the washing buffer that had been supplied with the kit. About 100 μL of Cell Dissociation Solution/Calcein-AM solution was added to the bottom chamber, and the cells were incubated at 37° C. under CO2 for 1 h. Briefly, the cells internalize calcein-AM, and then the intracellular esterases cleave the AM moiety to generate free calcein. […] The number of cells that had invaded through the BME coat was calculated using a standard curve.

[6] = test system: MCF7; assay: MTT proliferation assay, MCF7; type: cell-based, human; settings: for IC50: Homo sapiens, MCF7, MTT, 72 h, mean ± SEM, read-out: IC50 (μM) MCF7
Text: The antiproliferative and anti-invasive activities of compounds 1-14 were quantified using MTT and cell invasion assay kits, respectively. Latrunculin A (compound 1) was used as a positive control in all biological assays, because it is known to be an actin polymerization inhibitor, with cytotoxic, antiproliferative, and anti-invasive activities. The 3-[4,5-dimethylthiazol-2-yl]-2,5-diphenyl tetrazolium bromide (MTT) assay selectively detects living cells in a quantitative, colorimetric fashion, based on a living cell's ability to reduce MTT to an insoluble, purple formazan dye. The MTT assay is routinely used to assess cytotoxicity and proliferation inhibition activities. The antiproliferative activities of compounds 1-14 were measured against two human mammary gland adenocarcinoma cell lines, MCF7 and MDA-MB-231, and against human prostate cancer cells PC-3 at five different doses (0.1, 0.5, 1, 10, and 50 μM). While many of the semisynthetic latrunculins had similar activity levels, some had greater activity than compound 1. […] Although the MDA-MB-231 cells were more resistant than MCF7 against most latrunculin derivatives tested, compound 14 had potent activity against both cell lines.
MTT Proliferation Assay. The growth of MCF7, MDA-MB-231, and PC-3 cancer cell lines was measured using an MTT kit (TACS™, TREVIGEN®, Inc.). Exponentially growing cells were plated in a 96-well plate at a density of 8×10^3 cells per well, and allowed to attach for 24 h. Complete growth medium was then replaced with 100 μL of RPMI serum-free medium containing various concentrations (50, 10, 1, 0.5, 0.1 μM) of the particular test compound. Culture continued at 37° C. under 5% CO2. After 72 h of culture, the cells were treated with MTT solution (10 μL/well) at 37° C. for 4 h. The color reaction was stopped by adding solubilization/stop solution (100 μL/well). Incubation continued at 37° C. continued to completely dissolve the formazan dye product. Absorbance of the samples was determined at 570 nm with an ELISA plate reader (BioTek, VT). The number of cells per well was calculated against a standard curve that had been prepared by plating various concentrations of cells, as determined by hemocytometer, at the start of each experiment. IC50 for each compound was calculated using a nonlinear regression curve fit of log concentration versus the number of cells/well, using GraphPad Prism 5.0 (GraphPad Software, La Jolla, Calif.).

[7] = test system: array of kinases; assay: Kinase profiling; type: binding; settings: any kinase tested
Method: Latrunculins B and H (compounds 20 and 14, respectively) were tested in a panel of assays including ApoE secretion, anti-angiogenesis, G2/M, Wnt pathway, insulin secretion, and an array of kinase profiling. The G2/M assays include HeLa cell proliferation, apoptosis, DNA content, and condensation, cyclin B, and phosphor-histone H3. […] Alkaline phosphatases may perhaps be a target of the anti-invasive latrunculin 11.

[8] = test system: breast, CNS, colon, lung, melanoma, ovarian, and renal cancer cells; assay: Antiproliferative testing against 60 cell lines (NSC compounds); type: cell-based

With `COc1ccc(CC(=O)N2C(=O)SC[C@H]2[C@@]2(OC)C[C@H]3C[C@@H](CC[C@H](C)/C=C\C=C\CC/C(C)=C\C(=O)O3)O2)cc1` [Compound 11, 17-O-Methyl-N-(7′-methoxyphenylacetyl)latrunculin A] the “anti-invasive activity against PC-3” value [1] was “potent anti-invasive activity”, the “times greater inhibition against G2-M-phase HeLa cells compared to nocodazole” value ([2]; various G2_M assays) was 3.5-51.0 times and the IC50 [3] was 0.004 µM. The anti-migratory activity [4] was “potent anti-migratory”, the “fold more active against cell invasion than latrunculin A (compound 1)” value [5] was 4.6 fold and the IC50 [6] was 15.4 ± 1.21 µM.

`C/C1=C/C(=O)O[C@@H]2C[C@@H](CC[C@H](C)/C=C\C=C\CC1)O[C@@](O)([C@@H]1CSC(=O)N1CO)C2` [Compound 14, N-Hydroxymethyllatrunculin A] was tested, and the “dose range of strong growth inhibition of HeLa cells at early interphase” value ([2]; flow cytometry) was 0.04 to 1.25 µM, the “activity in G2_M assays compared with nocodazole” value ([2]; less active than compound 11) was “greater activity than did nocodazole” and the affinity toward kinases [7] was “Neither compound 20 nor compound 14 showed affinity toward any kinase tested”. The “number of the 60 cell lines tested with antiproliferative activity” value ([8]; dose of 10 μM) was 18, the log10GI50 ([8]; five-points dose-response, range over active cell lines) was −7.13 to −7.83 and the “fold more active against cell invasion than latrunculin A (compound 1)” value [5] was 2.1 fold. For the same compound, the “factor of greater activity than compound 1, MDA-MB-231 invasion assay” value ([5]; assessed at 1 μM) was 2.7, the IC50 [6] was 0.12 ± 0.01 µM and the “factor of greater activity than compound 1, MCF7 proliferation assay” value ([6]; assessed at 1 μM) was 4. The “fold increase in activity against MCF7 versus compound 1” value ([6]; relative to compound 1) was 4.0 fold.

From US20110136880A1, “Latrunculin-Based Macrolides and Their Uses” (priority 2009, published 2011)
